We go through one molecule from article PMC7563551, “The Cytokine IL-1β and Piperine Complex Surveyed by Experimental and Computational Molecular Biophysics” (Biomolecules, 2020).

This test addresses T1, IL-1β (interleukin-1 beta) (Homo sapiens, UniProt P01584).
T1 construct: gene IL1B; 153 residues, single Trp120 and extinction coefficient 11,460 fit the human mature chain; docking model 1ITB chain A
Description: Trp120 fluorescence quenching titration, interaction density function with Scatchard plot. The conditions noted are these: read-out: Kb. Type of test: binding.

Molecules are shown by their SMILES.

T1 sequence (P01584 117-269): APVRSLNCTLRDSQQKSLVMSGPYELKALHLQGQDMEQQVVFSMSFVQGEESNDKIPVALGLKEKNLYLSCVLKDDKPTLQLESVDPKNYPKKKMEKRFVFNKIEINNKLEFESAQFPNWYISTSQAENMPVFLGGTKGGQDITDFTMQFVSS

`O=C(/C=C/C=C/c1ccc2c(c1)OCO2)N1CCCCC1` [piperine]: the Kd is 6.99 µM.
